# Test results as given in US20260365633A1, “Novel PEM Structures for SBX” (Roche Sequencing Solutions, Inc., priority 2023, published 2026).
# Molecular target: T1, C4760 DNA polymerase (a variant of DPO4) (Saccharolobus solfataricus, UniProt Q97W02, A155G/A42V/D156R/D292Y/D294N/E291S/E324K/E325K/E327K/E63R/E79L/G187P/G299W/I153V/I189F/I248T/I295S/K152A/K317Q/K321Q/K56Y/K78D/L293W/M76W/N188Y/P184Q/Q82W/Q83G/R300S/S297Y/S86E/T290K/T301W/V289W/V296Q)
# T1 construct: Eco or Kod SSB in reaction as additive
# T1 sequence (Q97W02 1-340 A155G/A42V/D156R/D292Y/D294N/E291S/E324K/E325K/E327K/E63R/E79L/G187P/G299W/I153V/I189F/I248T/I295S/K152A/K317Q/K321Q/K56Y/K78D/L293W/M76W/N188Y/P184Q/Q82W/Q83G/R300S/S297Y/S86E/T290K/T301W/V289W/V296Q): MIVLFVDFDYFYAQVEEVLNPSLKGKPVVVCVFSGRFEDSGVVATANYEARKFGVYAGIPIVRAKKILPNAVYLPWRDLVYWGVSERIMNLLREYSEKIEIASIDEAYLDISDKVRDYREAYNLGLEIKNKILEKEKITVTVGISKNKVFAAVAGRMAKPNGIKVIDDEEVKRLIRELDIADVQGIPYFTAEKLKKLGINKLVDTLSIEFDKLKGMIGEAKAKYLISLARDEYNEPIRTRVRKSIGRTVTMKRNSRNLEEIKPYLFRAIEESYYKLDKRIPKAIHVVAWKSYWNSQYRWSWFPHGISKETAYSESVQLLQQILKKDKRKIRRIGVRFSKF
# Assay: not given
# Assay type: biochemical, Sulfolobus solfataricus
# Conditions: 0.5, 1, 1.52, or 2.5 Mm PEM, 30 minutes at 23 °C, FIG. 11
# Method: (§1) PEM activity of compound 12 was tested in primer extension assays using the HIV2 100mer template. Primer extension reactions included the following reagents: 50 Mm TrisCl, 200 Mm NH4Oac, 20% PEG8K, 5% NMS, 0.6 nmol PP-60.20, 0.6 Mm MnCl2, 2.75 μg/μl Eco single-strand binding protein (SSB), 1 M urea, 50 pmol each XNTP, 1.1 pmol template, 1 pmol [COMPOUND LEFT OUT] primer, 1.2 μg/μl purified recombinant C4760 DNA polymerase (SEQ ID NO: 2), and 0.5, 1, or 1.5 Mm PEM. 10 μL primer extension reactions were run for 30 minutes at 23 °C and reaction products were analyzed by gel electrophoresis.
# as §1, with “compounds 13 and 14” for “compound 12”, “(a variant of DPO4, see SEQ” for “(SEQ”, “1, 1.52,” for “1,”, “2.5” for “1.5”, “electrophoresis. A representative gel showing primer extension products is presented in FIG. 11 (the position of the full length HIV2 100mer is indicated by the arrow).” for “electrophoresis.”
# PEM activity of compounds 16, 17, and 18 and combinations thereof were tested in primer extension assays using the HIV2-derived 100mer template. […] 10 μL primer extension reactions were run for 30 minutes at 37 °C and reaction products were analyzed by gel electrophoresis. A representative gel showing primer extension products is presented in FIG. 13 (the position of a 100mer product is indicated by the arrow).
row,Compound,XNTP polymerization relative to compound 10
1,"Cc1cc(-c2cn(-c3ccc(C(=O)O)c(O)c3)nn2)nc(-c2cn(-c3ccc(C(=O)O)c(O)c3)nn2)c1 [Compound 13, 4,4′-((4-methylpyridine-2,6-diyl)bis(1H-1,2,3-triazole-4,1-diyl))bis(2-hydroxybenzoic acid)]",comparable to that of compound 10
2,"CCOC(=O)c1cc(-c2cn(-c3ccc(C(=O)O)c(O)c3)nn2)nc(-c2cn(-c3ccc(C(=O)O)c(O)c3)nn2)c1 [Compound 14, 4,4′-((4-(ethoxycarbonyl)pyridine-2,6-diyl)bis(1H-1,2,3-triazole-4,1-diyl))bis(2-hydroxybenzoic acid)]",comparable to that of compound 10

# Same assay, conditions: 0.5, 1, or 1.5 Mm PEM, 30 minutes at 23 °C, FIG. 10
row,Compound,XNTP polymerization relative to compound 10
1,"N#Cc1cc(-c2cn(-c3ccc(O)c(C(=O)O)c3)nn2)nc(-c2cn(-c3ccc(O)c(C(=O)O)c3)nn2)c1 [Compound 12, 5,5′-((4-cyanopyridine-2,6-diyl)bis(1H-1,2,3-triazole-4,1-diyl))bis(2-hydroxybenzoic acid)]",comparable to that of compound 10

# Same assay, conditions: compound 16 at 2 Mm; compound 17 at 0.5, 1, 2, 3 Mm; 30 minutes at 37 °C, FIG. 13
row,Compound,XNTP polymerization relative to compound 14
1,"CCNC(=O)c1cc(-c2cn(-c3ccc(C(=O)O)c(O)c3)nn2)nc(-c2cn(-c3ccc(C(=O)O)c(O)c3)nn2)c1 [Compound 17, 4,4′-((4-(ethylcarbamoyl)pyridine-2,6-diyl)bis(1H-1,2,3-triazole-4,1-diyl))bis(2-hydroxybenzoic acid)]",comparable to that of compound 14
2,"COC(=O)c1cc(-c2cn(-c3ccc(C(=O)O)c(O)c3)nn2)nc(-c2cn(-c3ccc(C(=O)O)c(O)c3)nn2)c1 [Compound 16, 4,4′-((4-(methoxycarbonyl)pyridine-2,6-diyl)bis(1H-1,2,3-triazole-4,1-diyl))bis(2-hydroxybenzoic acid)]",comparable to that of compound 14

# Molecular target: T1, C4760 DNA polymerase (a variant of DPO4)
# Assay: Primer extension on 45mer RNA template (HIV2) with C4760 polymerase, gel
# Assay type: biochemical, Sulfolobus solfataricus
# Conditions: 2 Mm PEM, 45mer RNA template derived from HIV2, Kod SSB, 30 minutes at 37 °C
# Method: To begin to investigate the potential of PEMs to enhance diverse polymerase reactions, the ability of PEMS to enable DNA polymerase to utilize RNA as a template was tested. An initial screen of several compounds set forth in Table 1 was conducted using a 45mer RNA template derived from the HIV2 genome sequence. Primer extension reactions included the following reagents: 50 Mm TrisCl, 200 Mm NH4OAc, 20% PEG8K, 5% NMS, 0.6 nmol PP-60.20, 0.6 Mm MnCl2, 2 μg Kod single-strand binding protein (SSB), 1 M urea, 50 pmol each XNTP, 0.5 pmol template, 0.5 pmol [COMPOUND LEFT OUT] primer, 1.2 μg purified recombinant C4760 DNA polymerase (a variant of DPO4, see SEQ ID NO: 2), and 2 Mm PEM. 10 μL primer extension reactions were run for 30 minutes at 37 °C and reaction products were analyzed by gel electrophoresis.
row,Compound,PEM activity on RNA template
1,"O=C(O)c1ccc(-n2cc(-c3cc(C(=O)N4CCOCC4)cc(-c4cn(-c5ccc(C(=O)O)c(O)c5)nn4)n3)nn2)cc1O [Compound 51, 4,4′-((4-(morpholine-4-carbonyl)pyridine-2,6-diyl)bis(1H-1,2,3-triazole-4,1-diyl))bis(2-hydroxybenzoic acid)]",display PEM activity on an RNA template
2,"CCNC(=O)c1cc(-c2cn(-c3ccc(C(F)(F)F)c(C(=O)O)c3)nn2)nc(-c2cn(-c3ccc(C(F)(F)F)c(C(=O)O)c3)nn2)c1 [Compound 75, 5,5′-((4-(ethylcarbamoyl)pyridine-2,6-diyl)bis(1H-1,2,3-triazole-4,1-diyl))bis(2-(trifluoromethyl)benzoic acid)]",display PEM activity on an RNA template
3,"CCNC(=O)c1cc(-c2cn(-c3ccc(C(=O)O)c(C(F)(F)F)c3)nn2)nc(-c2cn(-c3ccc(C(=O)O)c(C(F)(F)F)c3)nn2)c1 [Compound 73, 4,4′-((4-(ethylcarbamoyl)pyridine-2,6-diyl)bis(1H-1,2,3-triazole-4,1-diyl))bis(2-(trifluoromethyl)benzoic acid)]",display PEM activity on an RNA template
4,"CCNC(=O)c1cc(-c2cn(-c3ccc(C(=O)O)c(F)c3)nn2)nc(-c2cn(-c3ccc(C(=O)O)c(F)c3)nn2)c1 [Compound 76, 4,4′-((4-(ethylcarbamoyl)pyridine-2,6-diyl)bis(1H-1,2,3-triazole-4,1-diyl))bis(2-fluorobenzoic acid)]",display PEM activity on an RNA template
5,"CCNC(=O)c1cc(-n2cc(-c3ccc(C(=O)O)c(C(F)(F)F)c3)nn2)cc(-n2cc(-c3ccc(C(=O)O)c(C(F)(F)F)c3)nn2)c1 [Compound 116, 4,4′-((5-(ethylcarbamoyl)-1,3-phenylene)bis(1H-1,2,3-triazole-1,4-diyl))bis(2-(trifluoromethyl)benzoic acid)]",display PEM activity on an RNA template
6,"CCNC(=O)c1cc(-c2cn(-c3ccc(C(=O)O)c(O)c3)nn2)nc(-c2cn(-c3ccc(C(=O)O)c(O)c3)nn2)c1 [Compound 17, 4,4′-((4-(ethylcarbamoyl)pyridine-2,6-diyl)bis(1H-1,2,3-triazole-4,1-diyl))bis(2-hydroxybenzoic acid)]",display PEM activity on an RNA template
7,"CCNC(=O)c1cc(-c2cn(-c3cc(C(=O)O)cc(C(F)(F)F)c3)nn2)nc(-c2cn(-c3cc(C(=O)O)cc(C(F)(F)F)c3)nn2)c1 [Compound 93, 5,5′-((4-(ethylcarbamoyl)pyridine-2,6-diyl)bis(1H-1,2,3-triazole-4,1-diyl))bis(3-(trifluoromethyl)benzoic acid)]",display PEM activity on an RNA template
8,"CCNC(=O)c1cc(-c2cn(-c3ccc(C(=O)O)c([N+](=O)[O-])c3)nn2)nc(-c2cn(-c3ccc(C(=O)O)c([N+](=O)[O-])c3)nn2)c1 [Compound 106, 4,4′-((4-(ethylcarbamoyl)pyridine-2,6-diyl)bis(1H-1,2,3-triazole-4,1-diyl))bis(2-nitrobenzoic acid)]",display PEM activity on an RNA template
9,"O=C(O)c1ccc(-n2cc(-c3ccc(-c4cn(-c5ccc(C(=O)O)c(C(F)(F)F)c5)nn4)o3)nn2)cc1C(F)(F)F [Compound 118, 4,4′-(furan-2,5-diylbis(1H-1,2,3-triazole-4,1-diyl))bis(2-(trifluoromethyl)benzoic acid)]",display PEM activity on an RNA template
10,"O=C(NCCO)c1cc(-c2cn(-c3ccc(C(=O)O)c(C(F)(F)F)c3)nn2)nc(-c2cn(-c3ccc(C(=O)O)c(C(F)(F)F)c3)nn2)c1 [Compound 105, 4,4′-((4-((2-hydroxyethyl)carbamoyl)pyridine-2,6-diyl)bis(1H-1,2,3-triazole-4,1-diyl))bis(2-(trifluoromethyl)benzoic acid)]",display PEM activity on an RNA template
11,"CCNC(=O)c1cc(-c2cn(-c3ccc(C(=O)NCC(=O)O)c(C(F)(F)F)c3)nn2)nc(-c2cn(-c3ccc(C(=O)NCC(=O)O)c(C(F)(F)F)c3)nn2)c1 [Compound 110, 2,2′-((4,4′-((4-(ethylcarbamoyl)pyridine-2,6-diyl)bis(1H-1,2,3-triazole-4,1-diyl))bis(2-(trifluoromethyl)benzoyl))bis(azanediyl))diacetic acid]",display PEM activity on an RNA template
12,"CCN(CC)C(=O)c1cc(-c2cn(-c3ccc(C(=O)O)c(O)c3)nn2)nc(-c2cn(-c3ccc(C(=O)O)c(O)c3)nn2)c1 [Compound 49, 4,4′-((4-(diethylcarbamoyl)pyridine-2,6-diyl)bis(1H-1,2,3-triazole-4,1-diyl))bis(2-hydroxybenzoic acid)]",display PEM activity on an RNA template
